Measured values reported in article PMC6162288, “On-chip spatiotemporal electrophysiological analysis of human stem cell derived cardiomyocytes enables quantitative assessment of proarrhythmia in drug development” (Scientific Reports, 2018).
pIC50: −log10 of the molar value. “And” between values parts separate entries of the source, which are not always exact repeats. Equal entries are not always repeated.

Columns and labels:
[1] = test system: Cav1.2; settings: read-out: IC50 Cav1.2; cited from earlier work
[2] = test system: Nav1.5; settings: read-out: IC50 Nav1.5; cited from earlier work
[3] = cited from earlier work
[4] = test system: lined-up hESC-CMs; test: MEA field potential recording of lined-up hESC-CMs (cFPD, CT, their STVs, ISI, beat rate, arrest); assay type: cell-based, human; settings: for BR (beat rate) / Cond. Time (CT) / ISI (inter-spike interval) / STVCT / STVcFPD / cFPD: change vs Ctrl.
Protocol: Human embryonic stem cell-derived cardiomyocytes clusters (hES-CMCs) were shipped from Cellectis (hES-CMCTM002, hES cell line SA002, Gothenburg, Sweden)[42],[43], and maintained in Dulbecco’s modified Eagle’s medium (DMEM) supplemented 20% heat-inactivated fetal bovaine serum, 1 mM GlutaMax, 100 U/mL penicillin, 0.1 mg/mL streptomycin, 1% nonessential amino acids and 0.1 mM β-mercaptoethanol (Invitrogen, Carsbad, CA, USA). Dispersed cardiomyocytes were isolated from hES-CMCs by a modification of the methods of Norström et al.[44]–[48]. […] The supernatant was gently aspirated with pipette, and a 5-hold volume of DMEM was added as stop solution. Remaining clusters were treats ed with the above process with several times. The supernatants were collected and centrifuged with 200 × g for 2–3 min at 4 °C. The resulting supernatant including dispersed cells was seeded into agarose microchambers on an MEA chip (MED-P530A; AlphaMED scientific. Co. Ltd., Japan)[40].
The MEA chip surface was prepared as follows. First, the chip surface was coated with collagen type I-C (Nitta Gelatin, Japan). After drying, the chip surface was coated with a 0.1% agarose gel. […] At >30 min before the start of experiment, the medium was changed to 2 mL pre-warmed fresh maintenance medium per chip.
Extracellular potential recordings of the lined-up hESC-CMs were performed using the MEA system at a sampling rate of 10 kHz with a low path filter of 2 kHz and high path filter of 1 Hz, and signals were amplified by 100–50,000 using the amplifier. The MEA chip with lined-up hESC-CMs was set in the FP measurement device and placed in a humidified cell culture incubator at 37 °C, 5% CO2. The signals were analyzed by Igor Pro 6.0 (WaveMetrics, Inc., USA) and FlexPro 7.0 (Weisang GmbH, Germany).
We adopted the same drug administration protocol as we examined previously[40] (Fig. 2B). Briefly, the MEA chips of lined-up cells for experiments were selected from the chips having 0.6–1.1 Hz beating frequency and ventricle-like waveforms of FP recordings (see Fig. 1B,D). The MEA chip was placed in the holder of the FP measurement device, and equilibrated for 5 min, and then the control FP waveforms were recorded for 10 min. Subsequently, the drug was applied to the medium at 1% dilution in serially increasing additions, and the FP waveforms were recorded for 10 min at each concentration. Finally, the drug-containing medium was replaced with fresh medium after washing three times. The last 50 beats extracted from 10 min recorded FP waveform data was used for beat rate, FPD (the time from first depolarization peak to broad repolarization peak) and CT (the time difference of the first peaks between separately placed electrodes in lined-upped cell-network) measurement at each concentration (Fig. 2C).
It was normalized (cFPD) to the beating rate of cardiomyocytes using Bazett’s correction formula based on the comparison of the slope of a plot of inter-spike interval and FPD, or corrected FPD by Bazett’s or Fridericia’s formulae (Fig. 3). The short-term variability (STV) of cFPD and CT, which was defined as the mean distance of points perpendicular to the line of identity in the Poincaré plot, was calculated ( STV=∑|D(n+1)−Dn|/(n×2) , where Dn represents the FPD and CT of n-th beating). STVs were last 50 beat data from 5 min extraction of cFPD and CT. To assess the arrhythmogenicity risk of test drugs, the mean values of cFPD, STVcFPD, CT and STVCT of each drug were plotted.

[5] = test system: hERG; settings: cited from earlier work
[6] = Conc. 10^3 nM (1 μM), listed as astemizole

Compound: COc1ccc(CCN2CCC(Nc3nc4ccccc4n3Cc3ccc(F)cc3)CC2)cc1 [Astemizole, astemizole]
- pIC50 [1]: 6.15
- pIC50 [2]: 5.66
- EPTC ([3]; effective therapeutic plasma concentration): 5.5 to 7.9 nM
- Unbound ([3]; unbound therapeutic plasma concentration): 0.2 to 0.26 nM
- BR (beat rate) ([4]; Conc. 1 nM): 6.0%
- Cond. Time (CT) ([4]; Conc. 1 nM): −0.99%
- ISI (inter-spike interval) ([4]; Conc. 1 nM): −5.4%
- STVCT ([4]; Conc. 1 nM): 46%
- STVcFPD ([4]; Conc. 1 nM): −14%
- cFPD ([4]; Conc. 1 nM): 0.24%
- BR (beat rate) ([4]; Conc. 10 nM): 6.5%
- Cond. Time (CT) ([4]; Conc. 10 nM): −3.0%
- ISI (inter-spike interval) ([4]; Conc. 10 nM): −5.9%
- STVCT ([4]; Conc. 10 nM): 13%
- STVcFPD ([4]; Conc. 10 nM): 3.5%
- cFPD ([4]; Conc. 10 nM): 0.69%
- Cond. Time (CT) ([4]; Conc. 10^2 nM (0.1 μM)): −1.4%
- STVCT ([4]; Conc. 10^2 nM (0.1 μM)): 483%
- STVcFPD ([4]; Conc. 10^2 nM (0.1 μM)): 14%
- cFPD ([4]; Conc. 10^2 nM (0.1 μM)): 4.4%
- STVCT ([4]; Conc. 10^2 nM (0.1 μM), listed as astemizole): 483%
- BR (beat rate) ([4]; Conc. 10^2 nM): 6.1%
- ISI (inter-spike interval) ([4]; Conc. 10^2 nM): −5.3%
- Cond. Time (CT) ([4]; Conc. 10^3 nM (1 μM)): 126%
- STVCT ([4]; Conc. 10^3 nM (1 μM)): 196%
- STVcFPD ([4]; Conc. 10^3 nM (1 μM)): 122%
- cFPD ([4]; Conc. 10^3 nM (1 μM)): 43.7% and 44%
- STVCT [4, 6]: 196%
- STVcFPD [4, 6]: 122%
- BR (beat rate) ([4]; Conc. 10^3 nM): −2.5%
- ISI (inter-spike interval) ([4]; Conc. 10^3 nM): 3.1%
- BR (beat rate) ([4]; Conc. 10^−1 nM): 2.0%
- ISI (inter-spike interval) ([4]; Conc. 10^−1 nM): −1.9%
- STVCT ([4]; Conc. 10^−1 nM): 46%
- STVcFPD ([4]; Conc. 10^−1 nM): −2.8%
- cFPD ([4]; Conc. 10^−1 nM): −0.71%
- Cond. Time (CT) ([4]; Conc. 10^−1 nM, 150 μm inter-electrode distance): −3.3%
- CT ([4]; at equivalent concentrations of Nav1.5 IC50): increased
